Where “and” joins values, the source holds several entries; their conditions need not be identical. Identical values can stand only once. Like-named read-outs stand apart in the source and are kept apart here.
Key:
[1] = system: LLC (Lewis lung carcinoma) cell line
[2] = system: LLC (Lewis lung carcinoma) cell line; assay: Cytotoxic assay, in vitro LLC tumor cell assay (SRB method); details: for 50% Growth Inhibition (ED50): SRB method
[3] = system: spontaneously hypertensive rats (SHR); details: 0.1 mg/kg PO, Ave. of 3 rats (Tables 7 and 9: two experiments)
Method: Blood pressure and heart rate were recorded indirectly by tail cuff method in a temperature controlled environment (32±1° C.) before (0 time) and 1, 2 and 4 hours after oral administration of test substance or vehicle. A reduction in systolic pressure by 10 percent or more (>10%), or decrease in heart rate by 20 percent or more (≧20%), at each measured time interval relative to 0 time, is considered significant.
Blood pressure was recorded indirectly vial tail cuff at 0 time (before) and 1, 2 and 4 hours after oral administration of vehicle or test substance. A reduction in blood pressure by 10 percent or more (10%), or decrease in heart rate by 20 percent or more (≧20%) at each measurement time point relative to 0 time, shown in parenthesis, is considered significant.

[4] = system: HepG2: human liver carcinoma; assay: Tumor assay of ACM, MTT method, HepG2; assay type: cell-based; details: 3 days
From the text: (§1) Tumor Assay of ACM (Antrodia camphorata Mycelia Powder) A. Cell Line • Adherent Cell • MCF-7: human breast carcinoma • HT-29: human colon adenocarcinoma • KATO III: human stomach carcinoma • SW480: human colon adenocarcinoma • SW620: human colon adenocarcinoma • HepG2: human liver carcinoma • Suspension Cell • EL4: mice lymphoma B. Samples • Compound 1, Compound 3, ACM EtOH Extract, ACM H2O Extract C. Assay Method • Calculate ED50 (50% inhibition of effective dose) • Adherent cell: MTT (methyl thiazolyl tetrazolium) method for MCF-7, HT-29, KATO III, SW480, HepG2, cells are determined at 3 days. SW620 at 4 days • Suspension cell: Cell count method; EL4 cells count at 5 days D. Result Calculation: y=m Ln(x)+b
(§2) Use value of X (10, 30, 50 ppm) and Y to get correlation curve y=−0.2643 Ln(x)+1.5321 ED50=exp[0.97/2−1.5321/(−0.2643)] Sample Preparation and Sample Description A. ACM (Antrodia Camphorata Mycelia Powder) H2O Extract 1. Add 1 g of ACM into 40 ml of RO H2O in a 250 ml beaker, put the beaker in ultrasonic water bath for 20 min at room temperature 2. Stir at 45° C. water bath for 45 min 3. Place the beaker in ultrasonic water bath for another 20 min 4. Centrifuge the sample at 3000 rpm for 15 min 5. Collect supernatant and perform serial dilutions with media B. Determination of Sample Concentration 1. […] Read at OD545 on Elisa reader Cell Count Method (EL4 Cell Line) 1. […]

[5] = system: HT-29: human colon adenocarcinoma; assay: Tumor assay of ACM, MTT method, HT-29; assay type: cell-based; details: 3 days
From the text: as §1, §2

[6] = system: KATO III: human stomach carcinoma; assay: Tumor assay of ACM, MTT method, KATO III; assay type: cell-based; details: 3 days
From the text: as §1, §2

EL4: mice lymphoma = assay: Tumor assay of ACM, cell count method, EL4; assay type: cell-based; details: 5 days
From the text: as §1, §2

[7] = system: SW620: human colon adenocarcinoma; assay: Tumor assay of ACM, MTT method, SW620; assay type: cell-based; details: 4 days
From the text: as §1, §2

[8] = system: MCF-7: human breast carcinoma; assay: Tumor assay of ACM, MTT method, MCF-7; assay type: cell-based; details: 3 days
From the text: as §1, §2

[9] = system: SW480: human colon adenocarcinoma; assay: Tumor assay of ACM, MTT method, SW480; assay type: cell-based; details: 3 days
From the text: as §1, §2

[10] = system: ICR derived male mice, carbon tetrachloride induced hepatic injury; assay: Hepatic Injury, Carbon Tetrachloride, in Mice; assay type: in vivo, mouse; details: for ALT, group mean (X) / AST, group mean (X) / ALT, individual animal / AST, individual animal: CCl4-challenged ICR mice; for ALT, group mean (X) / AST, group mean (X): mean of 5; for ALT, individual animal / AST, individual animal: single animals N 1-5, 24 h after CCl4; for ALT Dec. % / AST Dec. %: decrease relative to vehicle group, brackets = 30% or greater
Method: Nine groups of ICR derived male mice (weighing 22±2 g) of 5 each were used. Each animals was challenged with a single dose of carbon tetrachloride (CCl4, 0.1 ml/kg in 50% olive oil, PO). […] The animals were sacrificed 24 hours after CCl4. Alanine aminotransferase (ALT) and Aspartate aminotransferase (AST) levels were measured by optimized UV method using a HITACHI automatic analyzer (model 7050). A reduction of ALT or AST levels by 30 percent or greater (30%), relative to the vehicle group, indicating significant protection from hepatic injury.
The test substance of ACM at doses 300 and 1000 mg/kg and compound 3 of the invention at doses 30, 100 and 300 mg/kg were administered orally to test animals 0.5 hour before and 4, 8 hours after CCl4 challenge. […] The degree of hepatic injury was determined by increase in serum alanine aminotransferase (ALT) and aspartate aminotransferase (AST) levels relative to the vehicle treated animals. ACM at 1000 mg/kg×3 and compound 3 of the invention at 300 mg/kg×3 caused a significant reduction of ALT (46% and 41%) and AST (36% and 33%) relative to the vehicle treated animals.

SMILES: CC(C)=CCOc1ccc([C@H]2C(=O)N(O)C(=O)[C@@H]2CC(C)C)cc1 (relative stereo) [Compound 4, 3R*,4S*-1-Hydroxy-3-isobutyl-4-[4-(3-methyl-2-butenyloxy)phenyl]pyrrolidine-2,5-dione]
- cytotoxic activity (in words) [1]: no cytotoxic activity
- 50% Growth Inhibition (ED50) [2]: >10 µg/mL

SMILES: Clc1cccc(Cl)c1N=C1NCCN1 [Clonidine]
- Heart Rate % Control (from 0 times), 2 Hours [3]: 90% and 86%
- Heart Rate % Control (from 0 times), 4 Hours [3]: 98% and 102%

SMILES: CC(C)=CCOc1ccc(C2=C(CC(C)C)C(=O)OC2=O)cc1 [Compound 1, 3-Isobutyl-4-[4-(3-methyl-2-butenyloxy)phenyl]furan-2,5-dione]
- ED50 [4]: 21 ppm
- ED50 [5]: 52 ppm
- ED50 [6]: 38 ppm
- ED50 (EL4: mice lymphoma): 3.5 ppm
- ED50 [7]: 15 ppm
- ED50 [8]: 6 ppm
- cytotoxic activity (in words) [2]: no cytotoxic activity
- 50% Growth Inhibition (ED50) [2]: >20 µg/mL

SMILES: CC(C)=CCOc1ccc(C2=C(CC(C)C)C(=O)N(O)C2=O)cc1 [Compound 3, 3-Isobutyl-4-[4-(3-methyl-2-butenyloxy)phenyl]-1H-pyrrol-1-ol-2,5-dione]
- ED50 [4]: 35 ppm
- ED50 [5]: 42 ppm
- ED50 [6]: 69 ppm
- ED50 (EL4: mice lymphoma): 2.6 ppm
- ED50 [9]: 20 ppm
- ED50 [7]: 27 ppm
- ED50 [8]: 0.02 ppm
- reduction of ALT relative to the vehicle treated animals ([10]; CCl4 mice, 300 mg/kg×3 PO): 41%
- reduction of AST relative to the vehicle treated animals ([10]; CCl4 mice, 300 mg/kg×3 PO): 33%
- ALT, group mean (X) ([10]; PO 30 mg/kg × 3): 3360 U/L
- AST, group mean (X) ([10]; PO 30 mg/kg × 3): 1962 U/L
- ALT, individual animal ([10]; PO 30 mg/kg × 3): 4296 U/L and 3696 U/L and 2152 U/L and 2400 U/L and 4256 U/L
- AST, individual animal ([10]; PO 30 mg/kg × 3): 2136 U/L and 2288 U/L and 1096 U/L and 1792 U/L and 2496 U/L
- ALT Dec. % ([10]; PO 30 mg/kg × 3): −1%
- AST Dec. % ([10]; PO 30 mg/kg × 3): −16%
- ALT, group mean (X) ([10]; PO 100 mg/kg × 3): 3342 U/L
- AST, group mean (X) ([10]; PO 100 mg/kg × 3): 1984 U/L
- ALT, individual animal ([10]; PO 100 mg/kg × 3): 3200 U/L and 4576 U/L and 2512 U/L and 2728 U/L and 3696 U/L
- AST, individual animal ([10]; PO 100 mg/kg × 3): 2256 U/L and 2976 U/L and 1536 U/L and 1552 U/L and 1600 U/L
- ALT Dec. % ([10]; PO 100 mg/kg × 3): 0%
- AST Dec. % ([10]; PO 100 mg/kg × 3): −17%
- ALT, group mean (X) ([10]; PO 300 mg/kg × 3): 1966 U/L
- AST, group mean (X) ([10]; PO 300 mg/kg × 3): 1130 U/L
- ALT, individual animal ([10]; PO 300 mg/kg × 3): 1368 U/L and 1576 U/L and 1440 U/L and 2728 U/L and 2720 U/L
- AST, individual animal ([10]; PO 300 mg/kg × 3): 776 U/L and 896 U/L (2×) and 1352 U/L and 1728 U/L
- ALT Dec. % ([10]; PO 300 mg/kg × 3): (41) %
- AST Dec. % ([10]; PO 300 mg/kg × 3): (33) %
- cytotoxic activity (in words) [2]: cytotoxic
- 50% Growth Inhibition (ED50) [2]: 7.5 µg/mL
